Experimental data as given in article PMC9295122, “Sialic Acid Derivatives Inhibit SiaT Transporters and Delay Bacterial Growth” (ACS Chemical Biology, 2022).
Converted amounts (≈) assume the structure as drawn. Read-outs that look alike come from different tables or passages of the source.

Columns and labels:
[1] = Solid solubility; format: physicochemical; settings: phosphate buffer, pH 7.4, aqueous buffer, thermodynamic from solid; from solid material, tested up to 2000 μM; read-out: Solid solubility in 0.1 M phosphate buffer pH 7.4
Text: Duplicate samples per compound.

[2] = Metabolic stability in rat liver microsomes; format: in vitro ADME; settings: for Metabolic stability in rat microsomes, Exp. 1 / Metabolic stability in rat microsomes, Exp. 2: intrinsic clearance, 1 µM compound; for microsomal CLint at 1 µM: rat liver microsomes, read-out: intrinsic clearance Clint
Description: (§1) The assay was run in a 96-deep well format and solutions were prepared containing microsomes in phosphate buffer. The microsomes employed were from humans, rats, and mice. The reaction was initiated by addition of NADPH after preincubation at 37 °C with test compounds. The reaction was stopped by the addition of acetonitrile (ACN) at six time points (0, 5, 10, 15, 25, and 45 min), the samples were centrifuged, and the supernatant was diluted to determine the loss of compound by LC–MS/MS. Two incubations per compound per species. For further details regarding working concentrations, volumes, and final concentrations at incubation, refer to the supplementary section (Table S6). […]
Metabolic Metabolic Metabolic stability in stability in stability in Plasma-protein human mouse rat In vitro plasma stability binding by RED
Assay/compo microsome microsome microsome (% compound remaining after (% unbound und s s s 23 h) compound, (µL/min/m (µL/min/m (µL/min/m average n=2) g protein) g protein) g protein)
Exp. Exp. Exp. Exp. Exp. Exp. Hum Mou Ra Do Mini Hum Mou Ra […]
Conc. of W orki ng Vol ume i n Fi nal conc. At sol uti on assay incubation
577 m g / m L520 µ L0. […]

[3] = Metabolic stability in mouse liver microsomes; format: in vitro ADME; settings: for Metabolic stability in mouse microsomes, Exp. 1 / Metabolic stability in mouse microsomes, Exp. 2: intrinsic clearance, 1 µM compound; for microsomal CLint at 1 µM: mouse liver microsomes, read-out: intrinsic clearance Clint
Description: as §1
Conc. of W orki ng Vol ume i n Fi nal conc. At
sol uti on assay incubation
577 m g / m L520 µ L0. 5 m g / m L […]
NADPH i n buffe r 7. 5 m M 80 µ L 1 m M

[4] = Plasma-protein binding by RED, human; format: in vitro ADME; settings: pH 7.2, read-out: Plasma-protein binding by RED (% unbound compound, average n=2)
Description: The assay was run in a deep well plate containing RED inserts with semipermeable dialysis membranes. The reaction was started by adding the compounds to a blank plasma in a 5 μM concentration. Opposite to the blank plasma was a compartment containing isotonic sodium–phosphate buffer (pH 7.2) separated from the plasma by the membrane. The plate was equilibrated in a water bath at 37 °C for 4 h. Samples from both the plasma and the buffer side were matrix compensated before protein precipitation. The samples were centrifuged, and the supernatants were diluted and analyzed by LC–MS/MS to determine the % unbound compound. Two incubations per compound per species.

[5] = Solubility screen; format: physicochemical; settings: aqueous buffer, kinetic from dmso stock; 100 mM phosphate buffer, pH 7.4, 1% DMSO; read-out: solubility (solubility screening)
Description: The compounds were dissolved in 10 mM DMSO solutions. The solubility was assessed by dilution in 0.1 M phosphate buffer pH 7.4 to a concentration of 100 μM.

[6] = Plasma stability, human; format: in vitro ADME; settings: 1 μM, 37 °C
Description: The reaction was started by the addition of the compound to blank plasma in LC vials after preincubation at 37 °C. The initial compound concentration was 1 μM. The reaction was stopped by the addition of ACN at seven time points (0, 0.5, 1, 2, 4, 6, and 23 h). Time point 0 h was about 15–20 s after spiking the plasma with the compound. The samples were centrifuged and the supernatant diluted and analyzed by LC–MS/MS to determine the % of compound remaining relative to the initial concentration of compound.

[7] = target: SaSiaT (Staphylococcus aureus, UniProt A0A0H2XJ46); test: Isothermal titration calorimetry, SaSiaT; format: binding
Chain of SaSiaT (A0A0H2XJ46 entry or part of it): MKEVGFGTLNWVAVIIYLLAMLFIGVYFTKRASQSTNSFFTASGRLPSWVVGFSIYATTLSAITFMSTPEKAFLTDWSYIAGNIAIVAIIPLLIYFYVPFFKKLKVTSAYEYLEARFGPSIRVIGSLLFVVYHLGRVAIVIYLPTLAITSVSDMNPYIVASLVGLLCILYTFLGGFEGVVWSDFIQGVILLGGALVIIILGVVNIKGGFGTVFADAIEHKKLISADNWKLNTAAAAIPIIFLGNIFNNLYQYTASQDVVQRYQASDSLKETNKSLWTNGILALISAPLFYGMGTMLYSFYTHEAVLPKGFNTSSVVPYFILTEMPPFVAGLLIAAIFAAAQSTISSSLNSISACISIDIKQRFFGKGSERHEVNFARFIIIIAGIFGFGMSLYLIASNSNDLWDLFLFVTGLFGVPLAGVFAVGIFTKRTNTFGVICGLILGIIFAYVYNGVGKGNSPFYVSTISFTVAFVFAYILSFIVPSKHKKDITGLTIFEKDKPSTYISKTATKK
Description: The binding thermodynamic analysis performed via isothermal titration calorimetry (ITC) provides insights into dissociation constants (Kd) and the binding driving forces of compounds 3a, 3e, and 3f with PmSiaT and SaSiaT.
Isothermal titration calorimetric experiments were performed on an ITC200 instrument (MicroCal, Northampton, USA) at 25 °C using standard instrument settings (reference power of 6 μcal s^–1, stirring speed of 750 rpm, feedback mode high, and filter period of 2 s). Protein solutions were dialyzed against ITC buffer (50 mM Tris–HCl, 150 mM NaCl, with 0.0174% (w/v) DDM, pH 8.0 at 5 °C) prior to the experiments, and all the samples were prepared using the dialysate buffer to minimize dilution effects. Protein concentrations were determined spectrophotometrically with the specific absorbance at 280 nm employing an extinction coefficient of 76,445 mol^–1 cm^–1 for PmSiaT and 75,750 M^–1 cm^–1 for SaSiaT. […] In a typical experiment, a 0.3–1.0 mM inhibitor solution was titrated to a solution containing 30–50 μM of PmSiaT or 13–20 μM of SaSiaT to ensure >90% saturation. Baseline correction, peak integration, and nonlinear regression analysis of experimental data were performed using the NITPIC (version 1.2.2.)[41] and SEDPHAT (version 12.1b)[42] software packages. The stoichiometry parameter was manually constrained to a value of 1. Experiments were performed in triplicate and the 68% confidence intervals from global fitting of three experiments were calculated as an estimate of the experimental error. All the titration curves can be found in Figures S10–S15.

[8] = ITC, 25 °C, read-out: SaSiaT Kd

SMILES | solubility [1] [µM] | Metabolic stability in rat microsomes, Exp. 1 [2] [µL/min/mg protein] | Metabolic stability in rat microsomes, Exp. 2 [2] [µL/min/mg protein] | microsomal CLint at 1 µM [2] [µL/min/mg] | Metabolic stability in mouse microsomes, Exp. 1 [3] [µL/min/mg protein] | Metabolic stability in mouse microsomes, Exp. 2 [3] [µL/min/mg protein] | microsomal CLint at 1 µM [3] [µL/min/mg] | fraction unbound at 4 h, 5 μM [4] | solubility [5] [µM] | In vitro plasma stability (% compound remaining after 23 h) [6] [%] | SaSiaT -TΔS° ([7]; ITC) [kcal/mol] | SaSiaT ΔG° ([7]; ITC) [kcal/mol] | SaSiaT ΔH° ([7]; ITC) [kcal/mol] | Kd [7, 8] [µM] | affinity increase for SaSiaT ([7]; compared to Neu5Ac) [fold] | Kd [7] [µM]
CC(=O)NC1C(OCc2ccccc2)CC(O)(C(=O)O)OC1C(O)C(O)CO (centres unmarked) [Compound 3a] | > 2000 | < 10 | < 10 | < 10 | < 10 | < 10 | < 10 | 0.85 | > 95 | 100 | -16 | -6.91 | 9.08 | 8.8 ± 2.7 | – | –
CC(=O)NC1C(OCc2cc(F)cc(F)c2)CC(O)(C(=O)O)OC1C(O)C(O)CO (centres unmarked) [Compound 3e] | > 2000 | < 10 | < 10 | < 10 | < 10 | < 10 | < 10 | 0.74 | > 95 | 100 | -16.5 | -7.36 | 9.15 | 4.1 ± 2.1 | 31 | –
CC(=O)NC1C(OCc2cc(Br)cc(Br)c2)CC(O)(C(=O)O)OC1C(O)C(O)CO (centres unmarked) [Compound 3f] | 1630 (≈ 908 µg/mL) | < 10 | < 10 | < 10 | < 10 | < 10 | < 10 | 0.27 | > 95 | 91 | -13.1 | -6.55 | 6.57 | 15.7 ± 7.3 | – | –
CC(=O)N[C@H]1[C@H]([C@H](O)[C@H](O)CO)OC(O)(C(=O)O)C[C@@H]1O (some centres unmarked) [Neu5Ac, 5-N-acetyl neuraminic acid, reference compound] | – | – | – | – | – | – | – | – | – | – | -14.7 | -5.31 | 9.37 | – | – | 130 ± 35
